Test results as given in US8501804B2, “Bicyclic compound” (Takeda Pharmaceutical Company Limited, priority 2008, dated 2013).

How the values were obtained:
[1] = target: T1, human ACC2 (Nd) (Homo sapiens, UniProt O00763); assay: ACC2 inhibitory activity (malachite green); assay type: biochemical; conditions: test compound 10 μM; read-out: ACC2 10 μM inhibitory rate (%)
T1 construct: His6 (from vector pFAST-BacHTa); made in house; host or cells: SF-9 insect cells, recombinant baculovirus BAC-ACC2 (Nd)
Description: The ACC2 inhibitory action of the compound of the present invention was evaluated by the following method.
(1) Cloning of Human ACC2 Gene and Preparation of Recombinant Baculovirus
(§1) Human ACC2 gene was cloned by PCR using a human skeletal muscle cDNA library (Clontech) as a template and Primer 1 and Primer 2 shown below. Primer 1 and Primer 2 were prepared by adding SalI, XbaI restriction enzyme recognition sequences based on the information of the base sequence of human ACC2 gene (Genbank Accession U89344).
(§2) PCR was performed using Pyrobest DNA polymerase (TAKARA BIO INC.). The obtained PCR product was cloned to pT7 Blue vector (Novagen) and, after confirmation of the base sequence, digested with restriction enzymes SalI and XbaI. The obtained DNA fragment was inserted into pFAST-BacHTa (Invitrogen) digested with restriction enzymes SalI and XbaI to give expression plasmid ACC2/pFAST-BacHTa.
A plasmid for expression of ACC2 without a mitochondrial targeting sequence was prepared by PCR using the expression plasmid as a template, and Primer 3 (SalI restriction enzyme recognition sequence was added) and Primer 4 prepared by reference to the information of human ACC2 gene base sequence (Genbank Accession U89344).
as §2, with “Pyrobest-DNA” for “Pyrobest DNA”, “AflII.” for “XbaI.”, “ACC2/pFAST-BacHTa” for “pFAST-BacHTa (Invitrogen)”, “AflII” for “XbaI”, “ACC2mito7/pFAST-BacHTa.” for “ACC2/pFAST-BacHTa.”
Using the expression plasmid ACC2mito7/pFAST-BacHTa and BAC-TO-BAC Baculovirus Expression System (Invitrogen), virus stock BAC-ACC2 of recombinant Baculovirus (N terminal deleted (hereinafter Nd)) was prepared.
(2) Preparation of ACC2 (Nd) Protein
SF-9 cells (Invitrogen) were inoculated to a medium (2 L) for insect cells (Sf-900IISFM medium (Invitrogen) containing 10% fetal bovine serum (Trace), 50 mg/L Gentamicin (Invitrogen), 0.1% Pluronic F-68 (Invitrogen)) at 0.5×10^6 cells/mL, and cultured with shaking in Wave Bioreactor (Wave) at 27° C., 20 rpm, rocking angle 6°, oxygen concentration 30%.
On day 4 of the culture, 3 L of the medium for insect cells was added, the rocking angle was set to 8°, and the cells were cultured. On day 5 of the culture, 100 ml of recombinant Baculovirus BAC-ACC2 (Nd) was added, 5 L of the medium for insect cells was further added, the rocking angle was set to 11°, and the cells were cultured for 3 days. The culture medium was centrifuged at 1000×g for 10 min to give virus-infected cells. The cells were washed with phosphate buffered saline (Invitrogen) and centrifuged under the same conditions. The obtained cells were cryopreserved at −80° C.
The cryopreserved cells were thawed in ice and suspended in 900 ml of 25 mM HEPES buffer (pH 7.5) containing 10% Glycerol, 0.13 M NaCl, 1 mM EDTA, 25 mM Sodium β-Glycerophosphate and 1 mM Sodium Orthovanadate, and supplemented with Complete Protease Inhibitor (Nippon Boehringer Ingelheim Co., Ltd.). The obtained suspension was homogenized three times in a polytron homogenizer (Kinematica) at 20,000 rpm for 30 sec. The obtained cell disruption solution was clarified by centrifugation at 31000×g for 60 min, and filtered through a 0.45 μm filter. The filtrate was passed through a column packed with 60 mL of Ni-NTA Super Flow Gel (QUIAGEN) at a flow rate of about 5 mL/min. The column was washed with buffer A (50 mM HEPES (pH 7.5) containing 0.3 M NaCl), further washed with buffer A containing 20 mM Imidazole, and eluted with buffer A containing 100 mM Imidazole. The eluate was concentrated with Vivaspin 20 (Vivascience) with a molecular weight cut off of 30K. The obtained concentrate was dialyzed against 50 mM HEPES (pH 7.5) containing 10 mM MgCl2, 2 mM Dithiothreitol, 10 mM Tripotassium Citrate and 0.3 M NaCl. The inner dialysate was filtered through a 0.22 μm filter to give ACC2 (Nd). […]

[2] = target: T2, human ACC1 (Homo sapiens, UniProt Q13085); assay: ACC1 inhibitory activity (malachite green); assay type: biochemical; conditions: test compound 10 μM; read-out: ACC1 10 μM inhibitory rate (%)
T2 construct: His6 (from vector pFAST-BacHTc); made in house; host or cells: SF-9 insect cells, recombinant baculovirus BAC-ACC1
Description: The ACC1 inhibitory action of the compound of the present invention was evaluated by the following method.
(1) Cloning of Human ACC1 Gene and Preparation of Recombinant Baculovirus
as §1, with “ACC1” for “ACC2”, “liver” for “skeletal muscle”, “NotI” for “XbaI”, “U19822).” for “U89344).”
as §2, with “NotI.” for “XbaI.”, “pFAST-BacHTc” for “pFAST-BacHTa”, “NotI” for “XbaI”, “ACC1/pFAST-BacHTc.” for “ACC2/pFAST-BacHTa.”
Using the expression plasmid ACC1/pFAST-BacHTc and BAC-TO-BAC Baculovirus Expression System (Invitrogen), virus stock BAC-ACC1 of recombinant Baculovirus was prepared.
(2) Preparation of ACC1 Protein
SF-9 cells (Invitrogen) were inoculated to a medium (1 L) for insect cells (Sf-900IISFM medium (Invitrogen) containing 10% fetal bovine serum (Trace), 50 mg/L Gentamicin (Invitrogen), 0.1% Pluronic F-68 (Invitrogen)) at 1×10^6 cells/mL, and cultured with shaking in 2 L meyer at 27° C., 100 rpm.
After 24 hr of the culture, 10 mL of recombinant Baculovirus BAC-ACC1 was added, and the cells were cultured for 3 days. The culture medium was centrifuged at 1000×g for 5 min to give virus-infected cells. The cells were washed with phosphate buffered saline (Invitrogen) and centrifuged under the same conditions. The obtained cells were cryopreserved at −80° C.
The cryopreserved cells were thawed in ice and suspended in 100 mL of 25 mM HEPES buffer (pH 7.5) containing 10% Glycerol, 0.13 M NaCl, 1 mM EDTA, 25 mM Sodium […] and 1 mM Sodium Orthovanadate, and supplemented with Complete Protease Inhibitor (Nippon Boehringer Ingelheim Co., Ltd.). The obtained suspension was homogenized three times in a polytron homogenizer (Kinematica) at 20,000 rpm for 30 sec. The obtained cell disruption solution was clarified by centrifugation at 185700×g for 50 min, and filtered through a 0.45 μm filter. The filtrate was passed through a column packed with 12 ml of Ni-NTA Super Flow Gel (QUIAGEN) at a flow rate of about 5 mL/min. The column was washed with buffer A (50 mM HEPES (pH 7.5) containing 0.3 M NaCl), further washed with buffer A containing 20 mM Imidazole, and eluted with buffer A containing 100 mM Imidazole. The eluate was concentrated with Vivaspin 20 (Vivascience) with a molecular weight cut off of 30K. The obtained concentrate was dialyzed against Sephadex G-25 (Amersham Biosciences, 358 mL) equilibrated with 50 mM HEPES (pH 7.5) containing 10 mM MgCl2, 2 mM Dithiothreitol, 10 mM Tripotassium Citrate and 0.3 M NaCl. The inner dialysate was concentrated with Vivaspin 20 (Vivascience) with molecular weight cut off of 30K, and concentrate was filtered through a 0.22 μm filter to give ACC1. The obtained ACC1 was cryopreserved at −80° C.
(3) Measurement of ACC1 Inhibitory Activity
ACC1 (0.93 mg/ml) obtained in the above-mentioned (2) was diluted with an enzyme reaction buffer (50 mM HEPES (pH 7.5), 10 mM MgCl2, 10 mM Tripotassium Citrate, 2 mM Dithiothreitol, 0.75 mg/ml Fatty acid free BSA) to a concentration of 8 μg/ml, and the mixture was added to each well of a 384 well assay plate (Nunc 265196) by 10 μl. A test compound was dissolved in dimethyl sulfoxide (DMSO) and the mixture was diluted with an enzyme reaction buffer and the resulting solution (5 μl) was added to each well. The mixture was incubated at 30° C. for 60 min. Then, a substrate solution (50 mM KHCO3, 200 μM ATP, 200 μM Acetyl-CoA, 5 μl) was added to each well, and the mixture was reacted at 30° C. for 20 min (test compound addition group). […]

T1 sequence (O00763 117-2458 limits assumed): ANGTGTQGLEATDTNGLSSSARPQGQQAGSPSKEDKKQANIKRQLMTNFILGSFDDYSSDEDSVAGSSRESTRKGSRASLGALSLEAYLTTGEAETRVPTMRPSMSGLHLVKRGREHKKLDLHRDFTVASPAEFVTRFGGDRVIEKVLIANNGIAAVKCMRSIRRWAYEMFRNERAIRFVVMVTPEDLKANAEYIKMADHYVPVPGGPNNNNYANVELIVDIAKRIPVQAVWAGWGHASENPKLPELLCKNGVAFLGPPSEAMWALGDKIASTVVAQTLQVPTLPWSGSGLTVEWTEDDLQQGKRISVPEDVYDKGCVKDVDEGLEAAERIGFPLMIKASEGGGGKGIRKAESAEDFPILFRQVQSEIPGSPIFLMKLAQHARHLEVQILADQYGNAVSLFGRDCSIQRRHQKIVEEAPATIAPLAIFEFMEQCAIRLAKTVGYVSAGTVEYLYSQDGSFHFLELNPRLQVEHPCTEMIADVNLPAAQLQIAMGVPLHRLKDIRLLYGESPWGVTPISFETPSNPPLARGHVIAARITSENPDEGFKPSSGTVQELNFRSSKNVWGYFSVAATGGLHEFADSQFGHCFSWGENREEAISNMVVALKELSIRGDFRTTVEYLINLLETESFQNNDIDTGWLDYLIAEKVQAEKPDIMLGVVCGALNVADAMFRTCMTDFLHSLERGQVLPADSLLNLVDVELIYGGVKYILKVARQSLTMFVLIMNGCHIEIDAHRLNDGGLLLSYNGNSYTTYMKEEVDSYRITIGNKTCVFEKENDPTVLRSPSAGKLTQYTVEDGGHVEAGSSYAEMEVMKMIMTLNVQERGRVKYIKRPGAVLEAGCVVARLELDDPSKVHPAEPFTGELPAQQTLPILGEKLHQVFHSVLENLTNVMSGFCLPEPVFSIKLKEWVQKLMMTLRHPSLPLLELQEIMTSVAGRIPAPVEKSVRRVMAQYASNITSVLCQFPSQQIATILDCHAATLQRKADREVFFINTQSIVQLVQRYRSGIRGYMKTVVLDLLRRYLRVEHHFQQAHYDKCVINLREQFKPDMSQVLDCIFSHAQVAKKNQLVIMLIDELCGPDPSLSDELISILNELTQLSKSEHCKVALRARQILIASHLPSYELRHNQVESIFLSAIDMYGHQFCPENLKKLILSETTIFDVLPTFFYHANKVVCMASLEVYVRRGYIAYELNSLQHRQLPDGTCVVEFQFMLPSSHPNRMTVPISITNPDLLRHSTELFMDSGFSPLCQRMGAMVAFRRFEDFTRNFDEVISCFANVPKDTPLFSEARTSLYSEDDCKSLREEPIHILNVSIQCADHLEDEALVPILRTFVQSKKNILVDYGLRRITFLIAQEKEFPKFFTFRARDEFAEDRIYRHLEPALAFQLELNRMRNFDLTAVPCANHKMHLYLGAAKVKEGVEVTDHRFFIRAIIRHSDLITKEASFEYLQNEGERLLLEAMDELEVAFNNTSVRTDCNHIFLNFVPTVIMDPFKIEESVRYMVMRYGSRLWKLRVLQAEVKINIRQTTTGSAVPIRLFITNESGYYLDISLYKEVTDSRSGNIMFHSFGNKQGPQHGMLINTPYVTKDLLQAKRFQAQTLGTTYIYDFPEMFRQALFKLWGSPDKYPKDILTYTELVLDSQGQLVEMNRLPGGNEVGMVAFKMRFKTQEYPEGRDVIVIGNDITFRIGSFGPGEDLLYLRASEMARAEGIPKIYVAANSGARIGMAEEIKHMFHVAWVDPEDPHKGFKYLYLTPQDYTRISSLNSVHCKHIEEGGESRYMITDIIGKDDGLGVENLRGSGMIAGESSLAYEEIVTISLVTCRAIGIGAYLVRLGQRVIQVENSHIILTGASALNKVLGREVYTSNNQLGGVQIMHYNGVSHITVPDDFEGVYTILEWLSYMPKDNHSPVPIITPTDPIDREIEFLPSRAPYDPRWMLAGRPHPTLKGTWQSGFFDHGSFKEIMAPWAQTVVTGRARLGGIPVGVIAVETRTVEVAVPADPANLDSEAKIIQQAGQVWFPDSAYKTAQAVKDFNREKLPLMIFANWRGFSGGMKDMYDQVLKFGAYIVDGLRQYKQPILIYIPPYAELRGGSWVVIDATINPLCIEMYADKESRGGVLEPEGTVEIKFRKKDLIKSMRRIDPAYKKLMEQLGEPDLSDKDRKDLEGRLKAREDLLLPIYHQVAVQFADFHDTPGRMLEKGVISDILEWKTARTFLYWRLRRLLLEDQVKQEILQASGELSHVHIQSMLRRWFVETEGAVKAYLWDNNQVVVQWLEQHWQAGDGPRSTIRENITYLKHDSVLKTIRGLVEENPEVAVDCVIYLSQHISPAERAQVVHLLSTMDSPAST

inhibition at 10 µM [1] | inhibition at 10 µM [2] | Compound
78% | 39% | CC(=O)NC(C)c1cc2cc(OCc3cnc(OCC4CC4)cc3F)ccc2o1 (stereo not shown) [Example 154, N-[1-(5-{[6-(cyclopropylmethoxy)-4-fluoropyridin-3-yl]methoxy}-1-benzofuran-2-yl)ethyl]acetamide]
81% | 27% | CC(=O)NC(C)c1cc2ccc(CCc3ccc(OCC4CC4)cc3)cc2o1 (stereo not shown) [Example 150, N-[1-(6-{2-[4-(cyclopropylmethoxy)phenyl]ethyl}-1-benzofuran-2-yl)ethyl]acetamide]
73% | 8% | CC(=O)N[C@@H](C)[C@@H]1Cc2ccc(OCc3ccc(OCC4CC4)nc3F)cc2O1 [Example 143, N-{(1S)-1-[(2S)-6-{[6-(cyclopropylmethoxy)-2-fluoropyridin-3-yl]methoxy}-2,3-dihydro-1-benzofuran-2-yl]ethyl}acetamide]
93% | 50% | CC(=O)NC(C)c1coc2cc(OCc3ccc(OCC4CC4)nc3F)ccc12 (stereo not shown) [Example 164, N-[1-(6-{[6-(cyclopropylmethoxy)-2-fluoropyridin-3-yl]methoxy}-1-benzofuran-3-yl)ethyl]acetamide]
88% | 31% | CC(Nc1ccon1)c1cc2ccc(CCc3ccc(OCC4CC4)cc3)cc2o1 (stereo not shown) [Example 176, N-[1-(6-{2-[4-(cyclopropylmethoxy)phenyl]ethyl}-1-benzofuran-2-yl)ethyl]isoxazol-3-amine]
75% | 23% | CSCCOc1ccc(CCc2ccc3cc(C(C)NC(C)=O)oc3c2)cc1 (stereo not shown) [Example 169, N-{1-[6-(2-{4-[2-(methylsulfanyl)ethoxy]phenyl}ethyl)-1-benzofuran-2-yl]ethyl}acetamide]
84% | 40% | CC(=O)N[C@@H](C)[C@@H]1Cc2ccc(OCc3ccc(OC[C@@H]4CCCO4)cc3F)cc2O1 [Example 146, N-{(1S)-1-[(2S)-6-({2-fluoro-4-[(2S)-tetrahydrofuran-2-ylmethoxy]benzyl}oxy)-2,3-dihydro-1-benzofuran-2-yl]ethyl}acetamide]

Further lines, the molecule ahead of its results:

Compound | inhibition at 10 µM [1] | inhibition at 10 µM [2]
CC(=O)NC(C)c1cc2ccc(C#Cc3ccc(OCC4CC4)nc3)cc2o1 (stereo not shown) [Example 138, N-[1-(6-{[6-(cyclopropylmethoxy)pyridin-3-yl]ethynyl}-1-benzofuran-2-yl)ethyl]acetamide] | 70% | 22%
CCOc1ccc(COc2ccc3oc(C(C)NC(C)=O)cc3c2)c(Cl)c1 (stereo not shown) [Example 28, N-(1-{5-[(2-chloro-4-ethoxybenzyl)oxy]-1-benzofuran-2-yl}ethyl)acetamide] | 81% | 19%
CCCCOc1ccc(CCc2ccc3cc(C(C)NC(C)=O)oc3c2)cc1 (stereo not shown) [Example 44, N-(1-{6-[2-(4-butoxyphenyl)ethyl]-1-benzofuran-2-yl}ethyl)acetamide] | 78% | 35%
CC(=O)NC(C)c1cc2ccc(CCc3ccc4c(c3)CCO4)cc2o1 (stereo not shown) [Example 94, N-(1-{6-[2-(2,3-dihydro-1-benzofuran-5-yl)ethyl]-1-benzofuran-2-yl}ethyl)acetamide] | 80% | 19%
CCOc1ccc(CCc2cc3oc(C(C)NC(C)=O)cc3cn2)cc1 (stereo not shown) [Example 135, N-(1-{6-[2-(4-ethoxyphenyl)ethyl]furo[3,2-c]pyridin-2-yl}ethyl)acetamide] | 81% | 14%
CCOc1ccc(CCc2ccc3cc(C(C)Nc4ccon4)oc3c2)cc1 (stereo not shown) [Example 124, N-(1-{6-[2-(4-ethoxyphenyl)ethyl]-1-benzofuran-2-yl}ethyl)isoxazol-3-amine] | 81% | 16%
CC(=O)N[C@@H](C)[C@@H]1Cc2ccc(OCc3cnc(OCC4CC4)cc3F)cc2O1 [Example 142, N-{(1S)-1-[(2S)-6-{[6-(cyclopropylmethoxy)-4-fluoropyridin-3-yl]methoxy}-2,3-dihydro-1-benzofuran-2-yl]ethyl}acetamide] | 74% | 42%
